Laboratory results published in US6462055B2, “Alpha-methylbenzyl-containing thiourea inhibitors of herpes viruses containing a phenylenediamine group” (Wyeth, priority 1998, dated 2002).
≈ marks a conversion by molar mass, not a printed value.

Experiments:
[1] = system: HCMV recombinant mutant virus (RV145); experiment: microbe, parasite or virus in culture; format: cell-based, human cytomegalovirus; settings: HCMV
In short: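 Human foreskin fibroblasts infected with HCMV RV145 carrying a viral-promoter-driven beta-glucuronidase gene, in presence of compound. At 96 h post-infection, lysates assayed for beta-glucuronidase with colorimetric or fluorogenic glucuronide substrate as replication read-out. IC50 estimated from varying inhibitor amounts.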

HSV-1 = experiment: HSV Antiviral (ELISA) Assay in Vero cells; format: cell-based, herpes simplex virus type 1; settings: HSV-1, Vero cells
In short: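 Viral replication was quantified by cell-fixed ELISA for HSV glycoprotein D, using a β-galactosidase reporter and fluorogenic umbelliferyl substrate, about 24 h after HSV-1 infection (MOI 0.006) of Vero cells. Compounds, at several concentrations, were added 30 min pre-infection. IC50 was derived from fluorescence relative to the compound-free signal.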

VZV strain Ellen = experiment: VZV Antiviral (ELISA) Assay in human foreskin fibroblast cells; format: cell-based, varicella-zoster virus
In short: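 First, fibroblasts are infected at multiplicity below 0.1 and kept overnight. The harvested cell mixture then goes onto compound-containing wells for three days at 37° C. Finally, cells are fixed and viral gpII is measured by fluorogenic ELISA.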

Row | SMILES | IC50 ug/ml HCMV [1] [µg/mL] | IC50 (ug/ml) HSV (HSV-1) [µg/mL] | IC50 (ug/ml) VZV (VZV strain Ellen) [µg/mL] | % inhibition 10 ug/ml VZV (VZV strain Ellen) [%]
1 | CN1CCC(N(C)c2ccc(NC(=S)Nc3ccc(NC(=O)c4c(F)cccc4F)cc3)cc2Cl)C1 (centres unmarked) [Example 349] | 1.2 (≈ 2.26 µM) | 5 (≈ 9.43 µM) | 4 (≈ 7.55 µM) | 110
2 | COc1cc(OC)c(NC(=S)Nc2ccc(NC(=O)c3ccccc3F)cc2Cl)cc1Cl [Example 355] | >10 | 0.035 (≈ 0.0708 µM) | >10 | 40
3 | O=C(Nc1ccc(NC(=S)Nc2ccc(SC3CCCCC3)c(Cl)c2)cc1)c1ccccc1F [Example 357] | 9 (≈ 17.5 µM) | >10 | 40 (≈ 77.8 µM) | 44
4 | CN(C)CC(=O)Nc1ccc(NC(=S)Nc2ccc(NC(=O)c3ccccc3F)cc2)cc1Cl [Example 362] | >10 | >10 | >10 | 8
5 | O=C(CN1CCCCC1)Nc1ccc(NC(=S)Nc2ccc(NC(=O)c3ccccc3F)cc2)cc1Cl [Example 364] | >10 | >10 | >15 | 73
6 | O=C(CN1CCOCC1)Nc1ccc(NC(=S)Nc2ccc(NC(=O)c3ccccc3F)cc2)cc1Cl [Example 367] | >10 | >10 | >10 | 20
7 | CS(=O)(=O)Nc1ccc(NC(=S)Nc2ccc(NC(=O)c3ccccc3F)cc2)cc1Cl [Example 370] | >10 | >10 | >10 | 16
8 | CN(C)CCSCC(=O)Nc1ccc(NC(=S)Nc2ccc(NC(=O)c3ccccc3F)cc2)cc1Cl [Example 373] | 6 (≈ 10.7 µM) | 9 (≈ 16.1 µM) | >10 | 4
9 | Cc1ccccc1C(=O)Nc1ccc(NC(=S)Nc2ccc(N(C)C3CCN(Cc4ccccc4)C3)c(Cl)c2)cc1 (centres unmarked) [Example 374] | 3 (≈ 5.14 µM) | 3 (≈ 5.14 µM) | 4 (≈ 6.85 µM) | 70
10 | Cc1ccccc1C(=O)Nc1ccc(NC(=S)Nc2ccc(N(C)C3CCN(C)CC3)c(Cl)c2)cc1 [Example 375] | 1.5 (≈ 2.87 µM) | 5 (≈ 9.58 µM) | 7 (≈ 13.4 µM) | 95
11 | O=C(Nc1ccc(NC(=S)Nc2ccc(Cl)c(C(F)(F)F)c2)cc1)c1c(F)cccc1F [Example 380] | >10 | >10 | >10 | 50
12 | CCSc1ccc(NC(=S)Nc2ccc(NC(=O)c3ccccc3F)cc2)cc1Cl [Example 386] | 2 (≈ 4.35 µM) | >10 | >10 | 29
13 | CCCCSc1ccc(NC(=S)Nc2ccc(NC(=O)c3ccccc3F)cc2)cc1Cl [Example 387] | >10 | >10 | >10 | 26
14 | CS(=O)(=O)c1ccc(NC(=S)Nc2ccc(NC(=O)c3c(F)cccc3F)cc2)cc1Cl [Example 392] | 0.5 (≈ 1.01 µM) | >10 | 2 (≈ 4.03 µM) | 92
15 | CS(=O)(=O)c1ccc(NC(=S)Nc2ccc(NC(=O)c3c(F)cccc3F)cc2)cc1Cl [Example 393] | 0.5 (≈ 1.01 µM) | >10 | >10 | 62
16 | Cc1ccc(NC(=S)Nc2ccc(NC(=O)c3ccccc3F)c(C)c2)cc1Cl [Example 395] | 3 (≈ 7.01 µM) | 0.2 (≈ 0.467 µM) | >10 | 64
17 | CCOC(=O)Nc1ccc(NC(=S)Nc2ccc(NC(=O)c3ccccc3F)cc2)cc1Cl [Example 399] | 1.5 (≈ 3.08 µM) | >10 | >10 | 59
18 | Nc1ccc(NC(=S)Nc2ccc(NC(=O)c3ccccc3F)cc2)cc1Cl [Example 404] | 8 (≈ 19.3 µM) | 0.4 (≈ 0.964 µM) | >10 | 15
19 | O=C(CN1CCSCC1)Nc1ccc(NC(=S)Nc2ccc(NC(=O)c3ccccc3F)cc2)cc1Cl [Example 407] | >10 | 4 (≈ 7.17 µM) | 0.7 (≈ 1.25 µM) | 87

Row | SMILES | IC50 ug/ml HCMV [1] [µg/mL] | IC50 (ug/ml) HSV (HSV-1) [µg/mL] | IC50 (ug/ml) VZV (VZV strain Ellen) [µg/mL] | % inhibition 10 ug/ml VZV (VZV strain Ellen) [%]
20 | CCN(CC)CC(=O)Nc1ccc(NC(=S)Nc2ccc(NC(=O)c3ccccc3F)cc2)cc1Cl [Example 414] | >10 | 6 (≈ 11.4 µM) | >15 | 70
21 | O=C(CN1CCCC1)Nc1ccc(NC(=S)Nc2ccc(NC(=O)c3ccccc3F)cc2)cc1Cl [Example 417] | >10 | 6 (≈ 11.4 µM) | >10 | 15
22 | O=C(CN1CCCCCC1)Nc1ccc(NC(=S)Nc2ccc(NC(=O)c3ccccc3F)cc2)cc1Cl [Example 423] | 1 (≈ 1.8 µM) | 4 (≈ 7.22 µM) | 0.9 (≈ 1.62 µM) | 87
23 | CC1CCCCN1CC(=O)Nc1ccc(NC(=S)Nc2ccc(NC(=O)c3ccccc3F)cc2)cc1Cl (centres unmarked) [Example 425] | 0.5 (≈ 0.902 µM) | 3 (≈ 5.41 µM) | >7.5 | 103
24 | O=C(Nc1ccc(NC(=S)Nc2cccc(C(F)(F)F)c2)cc1)c1ccccc1F [Example 433] | >10 | >10 | >10 | 0
25 | Nc1ccc(Cl)cc1NC(=S)Nc1ccc(NC(=O)c2ccccc2F)cc1 [Example 437] | >10 | 0.05 (≈ 0.121 µM) | 8 (≈ 19.3 µM) | 0
26 | Nc1cc(Cl)cc(NC(=S)Nc2ccc(NC(=O)c3ccccc3F)cc2)c1 [Example 442] | 2 (≈ 4.82 µM) | 1 (≈ 2.41 µM) | 8 (≈ 19.3 µM) | 81
27 | CC(O)c1cccc(NC(=S)Nc2ccc(NC(=O)c3ccccc3F)cc2)c1 (centres unmarked) [Example 448] | 9 (≈ 22 µM) | >10 | >10 | 0
28 | CC(C)c1cccc(NC(=S)Nc2ccc(NC(=O)c3ccccc3F)cc2)c1 [Example 452] | 2 (≈ 4.91 µM) | 4 (≈ 9.82 µM) | 1 (≈ 2.45 µM) | 75
29 | CN(C)c1cccc(NC(=S)Nc2ccc(NC(=O)c3ccccc3F)cc2)c1 [Example 454] | 4 (≈ 9.79 µM) | 1.5 (≈ 3.67 µM) | >10 | 55
30 | COc1cc(C)c(Cl)cc1NC(=S)Nc1ccc(NC(=O)c2ccccc2F)cc1Cl [Example 458] | >10 | 0.06 (≈ 0.125 µM) | >10 | 25
31 | Cc1ccc(NC(=S)Nc2ccc(NC(=O)c3ccccc3F)cc2Cl)cc1Cl [Example 459] | >10 | 0.12 (≈ 0.268 µM) | >10 | 25
32 | CSc1ccc(NC(=S)Nc2ccc(NC(=O)c3ccccc3F)cc2Cl)cc1Cl [Example 460] | 2 (≈ 4.16 µM) | 0.09 (≈ 0.187 µM) | >10 | 50
33 | N#Cc1cccc(NC(=S)Nc2ccc(NC(=O)c3ccccc3F)cc2)c1 [Example 461] | >10 | >10 | >10 | 33
34 | NNC(=O)c1cccc(NC(=S)Nc2ccc(NC(=O)c3ccccc3F)cc2)c1 [Example 463] | >10 | >10 | >10 | 19
35 | Nc1c(Cl)cccc1NC(=S)Nc1ccc(NC(=O)c2c(F)cccc2F)cc1 [Example 465] | >10 | >10 | >10 | 31
36 | O=C(Nc1ccc(NC(=S)Nc2cccc(O)c2)cc1)c1ccccc1F [Example 475] | >10 | 5 (≈ 13.1 µM) | >10 | 28
37 | CC(=O)Nc1cccc(NC(=S)Nc2ccc(NC(=O)c3ccccc3F)cc2)c1 [Example 477] | >10 | >10 | >10 | 15
38 | O=C(Nc1ccc(NC(=S)Nc2ccc3scnc3c2)cc1)c1ccccc1F [Example 484] | >10 | 0.4 (≈ 0.947 µM) | >10 | 28
